In PubChem BioAssay AID248 (DTP/NCI, 2004):
Several values for one entry are separate records, joined by “and”; a condition that tells them apart may be missing. Equal values may be shown once. Inconclusive results and toxic doses are left out. Rule as the data show it: active = T/C of 150% or more; inactive = T/C below 125%.

System: L1210 leukemia ip in BDF1 mice, survival T/C
Test: NCI In Vivo Anticancer Drug Screen. Data for tumor model L1210 Leukemia (intraperitoneal) in B6D2F1 (BDF1) mice
Conditions: endpoint: mean survival time, higher = longer survival
Summary of the method: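 Tumor was transplanted into mice, which were then dosed with test compound or vehicle alone. Survival was recorded for each group, and the treated figure was expressed relative to the control figure.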

[1] = dose: 100.0 mg/kg/injection, schedule: Q01DX009 (ip), vehicle: saline with Tween-80
[2] = dose: 200.0 mg/kg/injection, schedule: Q01DX009 (ip), vehicle: saline with Tween-80
[3] = dose: 400.0 mg/kg/injection, schedule: Q01DX009 (ip), vehicle: saline with Tween-80
[4] = dose: 50.0 mg/kg/injection, schedule: Q04DX003 (ip), vehicle: saline with Tween-80
[5] = dose: 100.0 mg/kg/injection, schedule: Q04DX003 (ip), vehicle: saline with Tween-80
[6] = dose: 200.0 mg/kg/injection, schedule: Q04DX003 (ip), vehicle: saline with Tween-80
[7] = dose: 100.0 mg/kg/injection, schedule: Q04DX002 (ip), vehicle: Klucel (hydroxypropylcellulose) (HPC)
[8] = dose: 200.0 mg/kg/injection, schedule: Q04DX002 (ip), vehicle: Klucel (hydroxypropylcellulose) (HPC)
[9] = dose: 400.0 mg/kg/injection, schedule: Q04DX002 (ip), vehicle: Klucel (hydroxypropylcellulose) (HPC)
[10] = dose: 50.0 mg/kg/injection, schedule: Q01DX009 (ip), vehicle: saline
[11] = dose: 100.0 mg/kg/injection, schedule: Q01DX009 (ip), vehicle: saline
[12] = dose: 100.0 mg/kg/injection, schedule: Q04DX003 (ip), vehicle: saline
[13] = dose: 200.0 mg/kg/injection, schedule: Q04DX003 (ip), vehicle: saline
[14] = dose: 100.0 mg/kg/injection, schedule: Q01DX009 (ip), vehicle: Klucel (hydroxypropylcellulose) (HPC)
[15] = dose: 200.0 mg/kg/injection, schedule: Q01DX009 (ip), vehicle: Klucel (hydroxypropylcellulose) (HPC)
[16] = dose: 400.0 mg/kg/injection, schedule: Q01DX009 (ip), vehicle: Klucel (hydroxypropylcellulose) (HPC)
[17] = dose: 50.0 mg/kg/injection, schedule: Q01DX009 (ip), vehicle: Klucel (hydroxypropylcellulose) (HPC)
[18] = dose: 100.0 mg/kg/injection, schedule: Q01DX001 (ip), vehicle: saline
[19] = dose: 100.0 mg/kg/injection, schedule: Q04DX003 (ip), vehicle: Klucel (hydroxypropylcellulose) (HPC)
[20] = dose: 200.0 mg/kg/injection, schedule: Q04DX003 (ip), vehicle: Klucel (hydroxypropylcellulose) (HPC)
[21] = dose: 400.0 mg/kg/injection, schedule: Q04DX003 (ip), vehicle: Klucel (hydroxypropylcellulose) (HPC)
[22] = dose: 200.0 mg/kg/injection, schedule: Q01DX009 (ip), vehicle: saline
[23] = dose: 400.0 mg/kg/injection, schedule: Q01DX009 (ip), vehicle: saline
[24] = dose: 12.5 mg/kg/injection, schedule: Q01DX009 (ip), vehicle: saline
[25] = dose: 25.0 mg/kg/injection, schedule: Q01DX009 (ip), vehicle: saline

Measured: T/C

CCOC(=O)CNC(=O)OCCOc1ccc(-c2ccccc2)cc1
inactive: [1] 98 % of control | [2] 97 % of control | [3] 95 % of control

CC(=O)Cn1c(=O)oc2ccccc2c1=O
inactive: [4] 102 % of control | [5] 108 % of control | [6] 102 % of control

CC1(CC(=O)O)CCCCC1CC(=O)O (configuration not stated)
inactive: [7] 110 % of control | [8] 103 % of control | [9] 97 % of control

OCCCN1CCC2(CC1)SSC1(CCN(CCCO)CC1)S2
inactive: [10] 95 % of control | [11] 101 % of control | [12] 95 % of control | [13] 98 % of control

COc1ccc(NC(c2ccco2)P(=O)(c2ccccc2)c2ccccc2)cc1 (configuration not stated)
inactive: [14] 91 % of control | [15] 104 % of control | [16] 98 % of control

O=c1[nH]c2ccccc2[nH]1
inactive: dose: 12.5 mg/kg/injection, schedule: Q04DX002 (ip), vehicle: Klucel (hydroxypropylcellulose) (HPC) 90 % of control | dose: 25.0 mg/kg/injection, schedule: Q04DX002 (ip), vehicle: Klucel (hydroxypropylcellulose) (HPC) 87 % of control | [17] 95 % of control | dose: 50.0 mg/kg/injection, schedule: Q04DX002 (ip), vehicle: Klucel (hydroxypropylcellulose) (HPC) 90 % of control | dose: 75.0 mg/kg/injection, schedule: Q01DX009 (ip), vehicle: Klucel (hydroxypropylcellulose) (HPC) 94 % of control | dose: 115.0 mg/kg/injection, schedule: Q01DX009 (ip), vehicle: Klucel (hydroxypropylcellulose) (HPC) 97 % of control | dose: 170.0 mg/kg/injection, schedule: Q01DX009 (ip), vehicle: Klucel (hydroxypropylcellulose) (HPC) 89 % of control

ON=C(CSCc1ccccc1)CSCc1ccccc1
inactive: dose: 50.0 mg/kg/injection, schedule: Q01DX009 (ip), vehicle: saline with Tween-80 101 % of control | [1] 101 % of control | [2] 100 % of control | [3] 101 % of control

CC1(C)Cc2cccc(C(=O)CCCN3CCCCC3)c2O1
inactive: [18] 104 % of control

C1=CC2CC1CC2[P+](c1ccccc1)(c1ccccc1)c1ccccc1 (configuration not stated)
inactive: dose: 12.5 mg/kg/injection, schedule: Q01DX001 (ip), vehicle: saline 117 % of control | dose: 25.0 mg/kg/injection, schedule: Q01DX001 (ip), vehicle: saline 98 % of control | dose: 50.0 mg/kg/injection, schedule: Q01DX001 (ip), vehicle: saline 95 % of control

CCOC(=O)c1c(-c2cc(OC)c(OC)c(OC)c2)csc1NC(=O)c1ccccc1
inactive: [4] 89 % of control | [5] 105 % of control | [6] 90 % of control | dose: 400.0 mg/kg/injection, schedule: Q04DX003 (ip), vehicle: saline with Tween-80 90 % of control

O=C(NCCBr)Nc1cccc2c1Cc1ccccc1-2
inactive: [14] 105 % of control | [19] 95 % of control | [15] 96 % of control | [20] 95 % of control | [16] 94 % of control | [21] 97 % of control

O=C(Nc1ccccc1F)Nc1ccc(Cl)cc1Cl
inactive: [11] 100 % of control | [22] 100 % of control | [23] 98 % of control

O=C(c1ccccn1)N1CCOCC1
inactive: [18] 101 % of control | [11] 98 % of control and 109 % of control | dose: 100.0 mg/kg/injection, schedule: Q04DX002 (ip), vehicle: saline 96 % of control and 116 % of control | [12] 98 % of control | dose: 200.0 mg/kg/injection, schedule: Q01DX001 (ip), vehicle: saline 105 % of control | [22] 103 % of control and 104 % of control | dose: 200.0 mg/kg/injection, schedule: Q04DX002 (ip), vehicle: saline 95 % of control and 97 % of control | [13] 98 % of control | dose: 400.0 mg/kg/injection, schedule: Q01DX001 (ip), vehicle: saline 97 % of control | [23] 95 % of control and 103 % of control | dose: 400.0 mg/kg/injection, schedule: Q04DX002 (ip), vehicle: saline 96 % of control and 103 % of control | dose: 400.0 mg/kg/injection, schedule: Q04DX003 (ip), vehicle: saline 107 % of control

NC(N)=N/N=C/c1cc([N+](=O)[O-])ccc1OCC(=O)O
inactive: dose: 60.0 mg/kg/injection, schedule: Q01DX Z (oral), vehicle: methylcellulose (MC) 98 % of control | dose: 120.0 mg/kg/injection, schedule: Q01DX Z (oral), vehicle: methylcellulose (MC) 98 % of control | dose: 240.0 mg/kg/injection, schedule: Q01DX Z (ip), vehicle: methylcellulose (MC) 95 % of control | dose: 240.0 mg/kg/injection, schedule: Q01DX Z (oral), vehicle: methylcellulose (MC) 115 % of control | dose: 360.0 mg/kg/injection, schedule: Q01DX Z (ip), vehicle: methylcellulose (MC) 93 % of control | dose: 480.0 mg/kg/injection, schedule: Q01DX Z (ip), vehicle: methylcellulose (MC) 100 % of control | dose: 480.0 mg/kg/injection, schedule: Q01DX Z (oral), vehicle: methylcellulose (MC) 102 % of control

COc1ccc(NC(=O)NCCN(C)c2ccccc2)cc1
inactive: [14] 93 % of control and 90 % of control | [7] 96 % of control and 101 % of control and 107 % of control | [19] 98 % of control | [15] 97 % of control and 104 % of control | [8] 98 % of control and 100 % of control and 104 % of control | [20] 101 % of control | [16] 100 % of control and 101 % of control | [9] 96 % of control and 101 % of control and 103 % of control | [21] 98 % of control

CCNCCCCCCNCC
inactive: [24] 97 % of control | [25] 108 % of control | dose: 25.0 mg/kg/injection, schedule: Q04DX003 (ip), vehicle: saline 98 % of control | [10] 93 % of control | dose: 50.0 mg/kg/injection, schedule: Q04DX003 (ip), vehicle: saline 107 % of control | [12] 87 % of control

COc1ccc(Oc2cc(CC3c4cc(OC)c(OC)cc4CCN3C)c([N+](=O)[O-])cc2OC)cc1OC (configuration not stated)
inactive: [24] 93 % of control | [25] 102 % of control | [10] 96 % of control | [11] 108 % of control

Cc1ccc(S(=O)(=O)N/N=C/C(Br)=C(/Br)C(=O)O)cc1
inactive: dose: 6.25 mg/kg/injection, schedule: Q01DX009 (ip), vehicle: Klucel (hydroxypropylcellulose) (HPC) 106 % of control | dose: 12.5 mg/kg/injection, schedule: Q01DX009 (ip), vehicle: Klucel (hydroxypropylcellulose) (HPC) 109 % of control | dose: 25.0 mg/kg/injection, schedule: Q01DX009 (ip), vehicle: Klucel (hydroxypropylcellulose) (HPC) 111 % of control | [17] 124 % of control

O=C(N/N=C/c1ccc(Cl)cc1Cl)C(O)(c1ccccc1)c1ccccc1
inactive: dose: 100.0 mg/kg/injection, schedule: Q01DX001 (ip), vehicle: carboxymethylcellulose (CMC) 111 % of control | dose: 200.0 mg/kg/injection, schedule: Q01DX001 (ip), vehicle: carboxymethylcellulose (CMC) 101 % of control | dose: 400.0 mg/kg/injection, schedule: Q01DX001 (ip), vehicle: carboxymethylcellulose (CMC) 92 % of control

CC(C)OC(CCC#N)c1ccccc1 (configuration not stated)
inactive: [14] 101 % of control | [19] 102 % of control | [15] 98 % of control | [20] 96 % of control | [21] 102 % of control

Nc1ncc(C(=O)O)s1
inactive: [14] 98 % of control | [15] 103 % of control | [16] 87 % of control
